Measured values as given in US10301267B2, “Compounds” (AstraZeneca AB, priority 2006, dated 2019).
pIC50: −log10 of the molar value. Where two headings read alike, the source gives them in different places.

What was measured:
Format in all cases: biochemical
[1] = target: T1, FGFR1 active kinase (Homo sapiens, UniProt P11362); assay: FGFR Kinase assay - Caliper; as to FGFR Kinase assay - Caliper, IC50: 408 µM ATP
[2] = target: T2, His6-tagged FGFR kinase domain (Homo sapiens, UniProt P11362, C488A/C584S); assay: FGFR Kinase assay - Elisa
T2 construct: FGFR kinase domain (amino acids 458-765, C488A, C584S) N-terminally fused to a His6-tag and TEV cleavage site; His6-tag plus linker and TEV cleavage site (printed as X1); made in house
T2 sequence (P11362 458-765 C488A/C584S): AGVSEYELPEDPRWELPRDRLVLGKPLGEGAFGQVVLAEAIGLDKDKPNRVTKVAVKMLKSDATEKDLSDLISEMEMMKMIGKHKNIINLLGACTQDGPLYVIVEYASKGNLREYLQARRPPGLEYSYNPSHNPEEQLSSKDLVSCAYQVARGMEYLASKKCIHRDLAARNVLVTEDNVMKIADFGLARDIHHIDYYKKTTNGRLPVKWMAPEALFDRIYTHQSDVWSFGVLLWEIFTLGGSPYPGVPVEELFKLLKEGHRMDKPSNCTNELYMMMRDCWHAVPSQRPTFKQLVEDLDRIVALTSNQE
Experimental: To determine inhibition of FGFR activity, kinase assays were conducted using ELISA (Enzyme-Linked Immunosorbent Assay) technology.
Kinase activity assays were performed in 384-well polypropylene plates (Matrix, Catalogue No. 4311. Matrix are part of Thermo Fisher Scientific, 22 Friars Drive, Hudson, N.H. 03051, USA) with a total volume of 40 μl in each well. Each well was coated with 2 μg of polyEAY substrate (Sigma, Catalogue No. P3899) at 4° C. overnight. The plates were then washed once with 100 μl PBS and once with 100 μl 50 mM HEPES (pH 7.4) prior to the addition of the kinase assay reagents. Reactions contained His6-tagged FGFR kinase domain (FGFR kinase domain (amino acids 458-765, C488A, C584S) N-terminally fused to a His6-tag and TEV cleavage site encoded by the following sequence; [[…]]. The final alanine denotes the start of the FGFR protein sequence. The resultant protein was expressed and purified based on Mohammadi et al, Cell Vol 86, 577-587 (1996). Each kinase reaction contained 0.1 ng His6-tagged FGFR kinase domain, 50 mM HEPES (pH 7.4), 0.1 mM Na3VO4, 0.1 mM DTT, 0.05% (v/v) Triton X100, 20 mM MgCl2, 160 μM ATP. Various concentrations of test compounds were each added in 5% (v/v) DMSO to yield a final assay DMSO concentration of 1.25% (v/v). The kinase reactions were incubated at room temperature for 45 minutes and stopped by washing the plate three times with 100 μl PBS plus 0.05% Tween. 40 μl of a one in 10000 dilution of 4G10-HRP antibody (Upstate Biotechnology, UBI 16-105. Upstate are part of Millipore Corporation, 290 Concord Road, Billerca Mass. 01821 USA) made up in 0.5% (w/v) BSA/PBS was then added to each well and the plates incubated at room temperature for one hour. Following this, the plates were then washed repeatedly with 100 μl PBS plus 0.05% Tween to remove all traces of the antibody solution. 40 μl of 50 μg/ml 3,3′,5,5′-Tetramethylbenzidine (Sigma, Catalogue No. T2885), 0.05M phosphate-citrate buffer, containing 0.03% sodium perborate was added to each well and the plates incubated at room temperature for twelve minutes. The colour reaction was stopped by the addition of 20 μl 2M H2SO4 and the plates read at 450 nm on a Spectrafluor Plus (Tecan Trading AG, Switzerland). In the assay, compounds were tested at a range of concentrations.
Percentage inhibition at 1 uM, as expressed herein, is a calculated value based on the curve fit that was generated experimentally. From the fitted curve plot, the effect of compound at a concentration of 1 uM was calculated as a percentage inhibition. The IC50 value is the concentration of test compound that inhibits 50% of FGFR kinase activity.

[3] = target: T1, FGFR1 active kinase; assay: FGFR Kinase assay - Caliper Echo Dosing; settings: FGFR1 7.2 nM, 408 uM ATP, acoustic dosing; geometric mean of n
[4] = FGFR1 […], 408 uM ATP, mean of n as printed, read-out: FGFR Kinase assay - Caliper, IC50
[5] = FGFR inhibition test, Caliper, read-out: Activity class (FGFR Kinase assay - Caliper)
[6] = FGFR inhibition test, Elisa, read-out: Activity class (FGFR Kinase assay - Elisa)

T1 sequence (P11362 22-822): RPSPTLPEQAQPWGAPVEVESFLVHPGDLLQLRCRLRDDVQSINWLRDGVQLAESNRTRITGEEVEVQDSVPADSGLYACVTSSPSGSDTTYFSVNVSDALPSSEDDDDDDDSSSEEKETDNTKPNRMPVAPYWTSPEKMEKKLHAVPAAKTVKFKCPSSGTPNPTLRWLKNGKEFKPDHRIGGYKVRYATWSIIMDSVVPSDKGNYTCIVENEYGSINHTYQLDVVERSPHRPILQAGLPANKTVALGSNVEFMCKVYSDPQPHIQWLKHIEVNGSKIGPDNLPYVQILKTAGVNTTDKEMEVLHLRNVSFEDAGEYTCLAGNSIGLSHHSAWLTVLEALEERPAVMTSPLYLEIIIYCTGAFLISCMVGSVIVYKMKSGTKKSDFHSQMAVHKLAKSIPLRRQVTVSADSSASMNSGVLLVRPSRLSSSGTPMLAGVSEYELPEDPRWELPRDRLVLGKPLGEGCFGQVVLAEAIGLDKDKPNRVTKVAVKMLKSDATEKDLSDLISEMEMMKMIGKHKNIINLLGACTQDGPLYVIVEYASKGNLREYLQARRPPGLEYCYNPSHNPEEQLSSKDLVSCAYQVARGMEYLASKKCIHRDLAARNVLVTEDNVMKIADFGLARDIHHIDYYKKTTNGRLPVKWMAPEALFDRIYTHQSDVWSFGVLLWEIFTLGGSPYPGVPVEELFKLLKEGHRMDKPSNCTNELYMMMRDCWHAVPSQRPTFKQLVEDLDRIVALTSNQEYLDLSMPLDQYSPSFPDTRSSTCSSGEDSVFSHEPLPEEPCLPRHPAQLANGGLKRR

Structure (SMILES): COc1ccc(C(=O)Nc2cc(CCc3cc(OC)cc(OC)c3)n[nH]2)cc1 [Example 3, N-[5-[2-(3,5-dimethoxyphenyl)ethyl]-2H-pyrazol-3-yl]-4-methoxy-benzamide]
- pIC50 [1, 4]: 6.88
- pIC50 [1, 5]: > 6.52
- pIC50 [2, 6]: > 6.52

Structure (SMILES): COc1cccc(CCc2cc(NC(=O)c3ccc(OC)nc3)[nH]n2)c1 [Example 14, 6-Methoxy-N-[5-[2-(3-methoxyphenyl)ethyl]-2H-pyrazol-3-yl]pyridine-3-carboxamide]
- pIC50 [1, 4]: 6.21
- pIC50 [1, 5]: 6.00 to 6.52
- pIC50 ([1]; footnote example, read-out: FGFR Kinase assay - Caliper, value in table footnote): 6.21
- pIC50 [2, 6]: 6.00 to 6.52
- pIC50 ([2]; footnote example, read-out: FGFR Kinase assay - Elisa, value in table footnote): 6.14

Structure (SMILES): COc1cc(COc2cc(NC(=O)c3cnc(N4CCN(C)CC4)cn3)[nH]n2)cc(OC)c1 [Example 20, N-[5-[(3,5-Dimethoxyphenyl)methoxy]-2H-pyrazol-3-yl]-5-(4-methylpiperazin-1-yl)pyrazine-2-carboxamide]
- pIC50 [1, 4]: 7.34
- pIC50 [1, 5]: > 6.52
- pIC50 [2, 6]: > 6.52

Structure (SMILES): COc1cc(CCc2cc(NC(=O)c3cnc(N4CCN(C)CC4)nc3)[nH]n2)cc(OC)c1 [Example 85, N-[5-[2-(3,5-Dimethoxyphenyl)ethyl]-2H-pyrazol-3-yl]-2-(4-methylpiperazin-1-yl)pyrimidine-5-carboxamide]
- pIC50 [1, 4]: 6.93
- pIC50 [3]: 7.83

Structure (SMILES): COc1cccc(CCc2cc(NC(=O)c3ccc(S(C)(=O)=O)cc3)[nH]n2)c1 [Example 15, N-[5-[2-(3-Methoxyphenyl)ethyl]-2H-pyrazol-3-yl]-4-methylsulfonyl-benzamide]
- pIC50 [1, 4]: 6.96
- pIC50 [1, 5]: > 6.52
- pIC50 [2, 6]: > 6.52

Structure (SMILES): COc1cc(CCc2cc(NC(=O)c3ccc(N4CCOCC4)cc3)[nH]n2)cc(OC)c1 [Example 4, N-[5-[2-(3,5-dimethoxyphenyl)ethyl]-2H-pyrazol-3-yl]-4-morpholin-4-yl-benzamide]
- pIC50 [1, 4]: 7.17
- pIC50 [1, 5]: > 6.52
- pIC50 [2, 6]: > 6.52

Structure (SMILES): COc1cc(CCc2cc(NC(=O)c3ccc(CN4CCC(F)CC4)cc3)[nH]n2)cc(OC)c1 [Example 5, N-[5-[2-(3,5-dimethoxyphenyl)ethyl]-2H-pyrazol-3-yl]-4-[(4-fluoropiperidin-1-yl)methyl]benzamide]
- pIC50 [1, 4]: 7.20
- pIC50 [1, 5]: > 6.52
- pIC50 [2, 6]: > 6.52

Structure (SMILES): COc1cc(CCc2cc(NC(=O)c3ccc(N4CCN(C5CC5)CC4)cc3)n[nH]2)cc(OC)c1 [Example 88, 4-(4-Cyclopropylpiperazin-1-yl)-N-[5-[2-(3,5-dimethoxyphenyl)ethyl]-1H-pyrazol-3-yl]benzamide]
- pIC50 [1, 4]: 6.81
- pIC50 [3]: 9.11

Structure (SMILES): COc1cc(COc2cc(NC(=O)c3ccc(N4CCN(C)CC4)cc3)[nH]n2)cc(OC)c1 [Example 12, N-[5-[(3,5-dimethoxyphenyl)methoxy]-2H-pyrazol-3-yl]-4-(4-methylpiperazin-1-yl)benzamide]
- pIC50 [2, 6]: > 6.52
- pIC50 ([2]; polyEAY substrate, 160 μM ATP, read-out: FGFR Kinase assay - Elisa, IC50): 7.22

Structure (SMILES): COc1cccc(CCc2cc(NC(=O)c3ccc(NC(C)=O)cc3)[nH]n2)c1 [Example 19, 4-Acetamido-N-[5-[2-(3-methoxyphenyl)ethyl]-2H-pyrazol-3-yl]benzamide]
- pIC50 [1, 4]: 6.40
- pIC50 [1, 5]: 6.00 to 6.52
- pIC50 [2, 6]: > 6.52

Structure (SMILES): COc1cccc(CCc2cc(NC(=O)c3cnc(C)cn3)[nH]n2)c1 [Example 16, N-[5-[2-(3-Methoxyphenyl)ethyl]-2H-pyrazol-3-yl]-5-methyl-pyrazine-2-carboxamide]
- pIC50 [1, 4]: 6.12
- pIC50 [1, 5]: 6.00 to 6.52
- pIC50 [2, 6]: 6.00 to 6.52

Structure (SMILES): COCCOc1cccc(CCc2cc(NC(=O)c3ccc(N4CCN(C)CC4)cc3)[nH]n2)c1 [Example 6, N-[5-[2-[3-(2-methoxyethoxy)phenyl]ethyl]-2H-pyrazol-3-yl]-4-(4-methylpiperazin-1-yl)benzamide]
- pIC50 [1, 4]: 7.24
- pIC50 [1, 5]: > 6.52
- pIC50 [2, 6]: > 6.52

Structure (SMILES): CCN1CCCN(c2ncc(C(=O)Nc3cc(CCc4cc(OC)cc(OC)c4)n[nH]3)cn2)CC1 [Example 171, N-[5-[2-(3,5-dimethoxyphenyl)ethyl]-2H-pyrazol-3-yl]-2-(4-ethyl-1,4-diazepan-1-yl)pyrimidine-5-carboxamide]
- pIC50 [3]: 8.04

Structure (SMILES): COc1cc(COc2cc(NC(=O)c3cnc(N4CCN5CCCCC5C4)nc3)[nH]n2)cc(OC)c1 (stereo not shown) [Example 119, 2-(1,3,4,6,7,8,9,9a-Octahydropyrido[2,1-c]pyrazin-2-yl)-N-[5-[(3,5-dimethoxyphenyl)methoxy]-2H-pyrazol-3-yl]pyrimidine-5-carboxamide]
- pIC50 [3]: 8.48

Structure (SMILES): COc1cccc(CCc2cc(NC(=O)c3ccc(C)nc3)[nH]n2)c1 [Example 13, N-[5-[2-(3-Methoxyphenyl)ethyl]-2H-pyrazol-3-yl]-6-methyl-pyridine-3-carboxamide]
- pIC50 [1, 4]: 6.02
- pIC50 [1, 5]: 6.00 to 6.52
- pIC50 [2, 6]: 6.00 to 6.52

Structure (SMILES): COc1cc(CCc2cc(NC(=O)c3cnc(N4C[C@@H](C)N[C@@H](C)C4)cn3)[nH]n2)cc(OC)c1 [Example 112, N-[5-[2-(3,5-dimethoxyphenyl)ethyl]-2H-pyrazol-3-yl]-5-[(3R,5S)-3,5-dimethylpiperazin-1-yl]pyrazine-2-carboxamide]
- pIC50 [3]: 8.77

Structure (SMILES): COc1cc(CCc2cc(NC(=O)c3ccc(I)cc3)[nH]n2)cc(OC)c1 [Example 82, N-[5-[2-(3,5-Dimethoxyphenyl)ethyl]-2H-pyrazol-3-yl]-4-iodo-benzamide]
- pIC50 [3]: 7.68

Structure (SMILES): COc1cc(CCc2cc(NC(=O)c3cnc(N4CCN(C)C(C)C4)nc3)[nH]n2)cc(OC)c1 (stereo not shown) [Example 135, N-[5-[2-(3,5-dimethoxyphenyl)ethyl]-2H-pyrazol-3-yl]-2-(3,4-dimethylpiperazin-1-yl)pyrimidine-5-carboxamide]
- pIC50 [3]: 8.59

Structure (SMILES): COc1cc(CCc2cc(NC(=O)c3ccc(N4CCCN(C)CC4)cc3)[nH]n2)cc(OC)c1 [Example 156, N-[5-[2-(3,5-dimethoxyphenyl)ethyl]-2H-pyrazol-3-yl]-4-(4-methyl-1,4-diazepan-1-yl)benzamide]
- pIC50 [3]: 9.09

Structure (SMILES): COc1cc(CCc2cc(NC(=O)c3ccc(N4CCCN(C)CC4)s3)[nH]n2)cc(OC)c1 [Example 142, N-[5-[2-(3,5-dimethoxyphenyl)ethyl]-2H-pyrazol-3-yl]-5-(4-methyl-1,4-diazepan-1-yl)thiophene-2-carboxamide]
- pIC50 [3]: 8.68

Structure (SMILES): C#CCNc1ccc(C(=O)Nc2cc(CCc3cccc(OC)c3)n[nH]2)nc1 [Example 17, N-[5-[2-(3-Methoxyphenyl)ethyl]-2H-pyrazol-3-yl]-5-(prop-2-ynylamino)pyridine-2-carboxamide]
- pIC50 [1, 4]: 6.18
- pIC50 [1, 5]: 6.00 to 6.52
- pIC50 [2, 6]: 6.00 to 6.52

Structure (SMILES): COc1cc(COc2cc(NC(=O)c3ccc(N4CCN(C)C(C)C4)s3)[nH]n2)cc(OC)c1 (stereo not shown) [Example 97, N-[5-[(3,5-dimethoxyphenyl)methoxy]-2H-pyrazol-3-yl]-5-(3,4-dimethylpiperazin-1-yl)thiophene-2-carboxamide]
- pIC50 [3]: 9.34
